Measurements from US20260166160A1, “PROTACS TARGETING VIRAL ENZYMES FOR PRECISE TREATMENT OF COVID-19” (Ohio University, priority 2022, published 2026).
Like-named read-outs stand apart in the source and are kept apart here.

How the values were obtained:
Mpro = Mpro (Severe acute respiratory syndrome coronavirus 2, UniProt P0DTD1); assay: Mpro degradation in HEK293 cells stably expressing wild-type Mpro (tetracycline-inducible), Western Blot with anti-T7 antibodies; format: cell-based, SARS-CoV-2; conditions: for remaining activity at 0.5 µM: HEK293, 24 h, read-out: Mpro (relative concentration)
Excerpt: To evaluate the degradation activity of MP-C-4N (initially, and additional PROTAC compounds later), a Mpro expression system was constructed in mammalian cells. A cell line stably expressing wild-type Mpro was constructed. According to the RNA sequence of wild-type Mpro, the corresponding DNA sequence was synthesized and codon-optimzied to be suitable for expression in HEK293 cells. After investigating the influence of different expression vectors and promoters on the protein expression level, pCW57.1-TetOn was selected as the expression vector, which contains a tetracycline-inducible promoter, and the target protein expression can be started or closed by controlling the content of tetracycline. With this cell line, the process of expressing MPro during virus infection in human cells was successfully simulated. This model was used to successfully test the degradation ability of candidate compounds on the target protein. Specifically, the cells were treated with doxycycline (1 μg/mL) for 12 h. After removing doxycycline, the cells were treated with PROTACs with indicated concentrations for 24 h and then harvested. The expression of Mpro was determined by Western Blot (WB) analysis using anti-T7 antibodies.

[1] = system: human coronavirus OC43 (HCoV-OC43); assay: Anti-virus activity, HCoV-OC43 plaque formation in RD cells
[2] = compound at 500 nM, control 100%, Tables 1-3
[3] = Betacoronavirus 1, OC43, RD, RD cells infected with HCoV-OC43, 33° C., 4-5 days, plaque areas, Tables 7-11

| Compound | remaining activity at 0.5 µM (Mpro) [%] | EC50 ([1]; Betacoronavirus 1, OC43, RD) [nM] | other results |
| --- | --- | --- | --- |
| Cc1ccc(NC(=O)c2ccc(CN3CCN(C(=O)CCOCCNc4cccc5c4C(=O)N(C4CCC(=O)NC4=O)C5=O)CC3)cc2)cc1Nc1nc(-c2cccnc2)cs1 (centres unmarked) [MP-18, 4-((4-(3-(2-((2-(2,6-dioxopiperidin-3-yl)-1,3-dioxoisoindolin-4-yl)amino)ethoxy)propanoyl)piperazin-1-yl)methyl)-N-(4-methyl-3-((4-(pyridin-3-yl)thiazol-2-yl)amino)phenyl)benzamide] | 45 | 336 | – |
| Cc1ccc(NC(=O)c2ccc(CN3CCN(C(=O)CCOCCOCCNc4cccc5c4C(=O)N(C4CCC(=O)NC4=O)C5=O)CC3)cc2)cc1Nc1nc(-c2cccnc2)cs1 (centres unmarked) [MP-19] | 32 | 318 | – |
| Cc1ccc(NC(=O)c2ccc(CN3CCN(C(=O)CCOCCOCCOCCNc4cccc5c4C(=O)N(C4CCC(=O)NC4=O)C5=O)CC3)cc2)cc1Nc1nc(-c2cccnc2)cs1 (centres unmarked) [MP-20] | 28 | 310 | – |
| Cc1ccc(NC(=O)c2ccc(CN3CCN(C(=O)CCOCCOCCOCCOCCNc4cccc5c4C(=O)N(C4CCC(=O)NC4=O)C5=O)CC3)cc2)cc1Nc1nc(-c2cccnc2)cs1 (centres unmarked) [MP-21] | 52 | 480 | – |
| Cc1ccc(NC(=O)c2ccc(CN3CCN(C(=O)CCOCCOCCOCCOCCOCCNc4cccc5c4C(=O)N(C4CCC(=O)NC4=O)C5=O)CC3)cc2)cc1Nc1nc(-c2cccnc2)cs1 (centres unmarked) [MP-22] | 75 | 615 | – |
| O=C(CCOCCNc1cccc2c1C(=O)N(C1CCC(=O)NC1=O)C2=O)NCCn1cc(NC(=O)c2c(Cl)cccc2Cl)c(C(=O)NC2CCNCC2)n1 (centres unmarked) [MP-28, 4-(2,6-dichlorobenzamido)-1-(2-(3-(2-((2-(2,6-dioxopiperidin-3-yl)-1,3-dioxoisoindolin-4-yl)amino)ethoxy)propanamido)ethyl)-N-(piperidin-4-yl)-1H-pyrazole-3-carboxamide] | 33 | 315 | – |
| O=C(CCOCCOCCNc1cccc2c1C(=O)N(C1CCC(=O)NC1=O)C2=O)NCCn1cc(NC(=O)c2c(Cl)cccc2Cl)c(C(=O)NC2CCNCC2)n1 (centres unmarked) [MP-29] | 40 | 380 | – |
| O=C(CCOCCOCCOCCNc1cccc2c1C(=O)N(C1CCC(=O)NC1=O)C2=O)NCCn1cc(NC(=O)c2c(Cl)cccc2Cl)c(C(=O)NC2CCNCC2)n1 (centres unmarked) [MP-30] | 52 | 435 | – |
| O=C(CCOCCOCCOCCOCCNc1cccc2c1C(=O)N(C1CCC(=O)NC1=O)C2=O)NCCn1cc(NC(=O)c2c(Cl)cccc2Cl)c(C(=O)NC2CCNCC2)n1 (centres unmarked) [MP-31] | 65 | 520 | – |
| O=C(CCOCCOCCOCCOCCOCCNc1cccc2c1C(=O)N(C1CCC(=O)NC1=O)C2=O)NCCn1cc(NC(=O)c2c(Cl)cccc2Cl)c(C(=O)NC2CCNCC2)n1 (centres unmarked) [MP-32] | 80 | 830 | – |
| CC(C)C[C@H](NC(=O)[C@@H](NC(=O)[C@H](C)NC(=O)CCOCCNc1cccc2c1C(=O)N(C1CCC(=O)NC1=O)C2=O)C(C)C)C(=O)N[C@H](C#N)C[C@@H]1CCNC1=O (some centres unmarked) [MP-38] | – | – | remaining activity at 0.5 µM (Mpro; [2]): 50%; EC50 [1, 3]: 380 nM |
| CC(C)C[C@H](NC(=O)[C@@H](NC(=O)[C@H](C)NC(=O)CCOCCOCCNc1cccc2c1C(=O)N(C1CCC(=O)NC1=O)C2=O)C(C)C)C(=O)N[C@H](C#N)C[C@@H]1CCNC1=O (some centres unmarked) [MP-39] | – | – | remaining activity at 0.5 µM (Mpro; [2]): 40%; EC50 [1, 3]: 235 nM |
| CC(C)C[C@H](NC(=O)[C@@H](NC(=O)[C@H](C)NC(=O)CCOCCOCCNc1cccc2c1C(=O)N(C1CCC(=O)NC1=O)C2=O)C(C)C)C(=O)N[C@H](C#N)C[C@@H]1CCNC1=O (some centres unmarked) [MP-40] | – | – | Mpro (relative concentration) (Mpro; [2]): 25%; EC50 ([1]; RD cells infected with HCoV-OC43, 33° C., 4-5 days, plaque areas, Tables 7-11): 225 nM |
| CC(C)C[C@H](NC(=O)[C@@H](NC(=O)[C@H](C)NC(=O)CCOCCOCCOCCNc1cccc2c1C(=O)N(C1CCC(=O)NC1=O)C2=O)C(C)C)C(=O)N[C@H](C#N)C[C@@H]1CCNC1=O (some centres unmarked) [MP-41] | – | – | remaining activity at 0.5 µM (Mpro; [2]): 45%; EC50 [1, 3]: 325 nM |
| CC(C)C[C@H](NC(=O)[C@@H](NC(=O)[C@H](C)NC(=O)CCOCCOCCOCCOCCNc1cccc2c1C(=O)N(C1CCC(=O)NC1=O)C2=O)C(C)C)C(=O)N[C@H](C#N)C[C@@H]1CCNC1=O (some centres unmarked) [MP-42] | – | – | remaining activity at 0.5 µM (Mpro; [2]): 70%; EC50 [1, 3]: 410 nM |
| CC(C)C1CCN(C(=O)[C@@H](NC(=O)[C@H](C)NC(=O)CCOCCOCCOCCNc2cccc3c2C(=O)N(C2CCC(=O)NC2=O)C3=O)C(C)(C)C)C1C(=O)N[C@H](C#N)CC1CCNC1=O (some centres unmarked) [MP-C-4N] | – | – | concentration at which degradation of Mpro was detected (Mpro; WB, cells treated 24 h, FIG. 55): 0.5 to 1.0 µM; concentration dependence of Mpro degradation activity (Mpro; WB, FIG. 55): concentration-dependent |
